Experimental data reported in patent US11827628B2, “Compositions and methods for inhibition of the JAK pathway” (Rigel Pharmaceuticals, Inc., priority 2005, dated 2023).
Structures can show the parent of a compound that is named as a salt. Where two headings read alike, the source gives them in different places.

Key:
[1] = test system: IL-4 stimulated expression of CD23 in human Ramos B cells (JAK-1 and JAK-3); assay: Assay for Ramos B-Cell Line Stimulated with IL-4 (CD23 upregulation, FACS); assay type: cell-based; conditions: read-out: IC50, Example 41
Method in brief: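 Compound effect on IL-4-driven JAK1/JAK3 signalling is gauged as CD23 surface expression, measured by FACS after 20-24 h of stimulation with IL-4 at 50 units/mL final. A 1 h compound pre-treatment at 37 °C precedes stimulation, and IC50 is derived from the results.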

Primary human T-cells = assay: Primary Human T-Cell Proliferation Assay Stimulated with IL-2 (CellTiter-Glo); assay type: cell-based; conditions: read-out: IC50, Example 42
Method in brief: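 Peripheral blood T-cells pre-activated with anti-CD3/anti-CD28 and IL-2 were washed free of IL-2, then cultured with compound plus IL-2 for 72 hours at 37° C, duplicate wells. Viability read as ATP by CellTiter-Glo luminescence; IC50 reported.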

[2] = Ramos B cells stimulated with IL-4, CD23 expression by FACS
[3] = primary human T-cells stimulated with IL-2, proliferation
[4] = Homo sapiens, Ramos, Ramos B cells stimulated with IL-4, CD23 expression by FACS
[5] = Homo sapiens, T-cell, primary human T-cells stimulated with IL-2, proliferation
[6] = Ramos B-cell line stimulated with IL-4, CD23 expression by FACS
[7] = primary human T-cell proliferation stimulated with IL-2
[8] = Homo sapiens, Ramos, Ramos B-cell line stimulated with IL-4, CD23 expression by FACS
[9] = Homo sapiens, T-cell, primary human T-cell proliferation stimulated with IL-2

Compound | IC50 [1, 2] [nM] | IC50 (Primary human T-cells; [3]) [nM] | IC50 [1, 4] [nM] | IC50 (Primary human T-cells; [5]) [nM] | further results
NS(=O)(=O)c1cccc(Nc2ncc(F)c(Nc3ccc(OC(F)(F)F)cc3)n2)c1 [VI-33, N2-(3-aminosulfonylphenyl)-5-fluoro-N4-(4-trofluoromethoxyphenyl)-2,4-pyrimidinediamine] | 272 | 660 |  |  | 
NS(=O)(=O)c1cc(Nc2ncc(F)c(Nc3ccc(OC(F)(F)F)cc3)n2)ccc1Cl [VI-42, N2-(3-Aminosulfonyl-4-chlorophenyl)-5-fluoro-N4-(4-trifluoromethoxyphenyl)-2,4-pyrimidinediamine] |  |  | 452 | 6170 | 
NS(=O)(=O)c1cccc(Nc2ncc(F)c(Nc3cnc4ccccc4c3)n2)c1 [VII-66, N2-(3-Aminosulfonylphenyl)-5-fluoro-N4-(quinolin-3-yl)-2,4-pyrimidinediamine] |  |  | 369 | 2870 | 
N#Cc1cc(Nc2nc(Nc3cccc(S(N)(=O)=O)c3)ncc2F)ccc1F [VI-98, N2-(3-Aminosulfonylphenyl)-N4-(3-cyano-4-fluorophenyl)-5-fluoro-2,4-pyrimidinediamine] |  |  | 136 | 986 | 
CNC(=O)N1CCCc2cc(Nc3nc(Nc4cccc(S(N)(=O)=O)c4)ncc3F)ccc21 [VII-20, N2-(3-Aminosulfonylphenyl)-5-fluoro-N4-[1-(methylaminocarbonyl)-1,2,3,4-tetrahydroquin-6-yl]-2,4-pyrimidinediamine] | 286 | 698 |  |  | 
NS(=O)(=O)c1cccc(Nc2ncc(F)c(Nc3cccc(OCc4cccnc4)c3)n2)c1 [Compound I-182, N2-(3-Aminosulfonylphenyl)-5-fluoro-N4-[3-(3-pyridinyl)methyleneoxyphenyl]-2,4-pyrimidinediamine] |  |  |  |  | IC50 [1, 6]: 190 nM; IC50 (Primary human T-cells; [7]): 1130 nM
C#CCOc1cccc(Nc2nc(Nc3ccc(C)c(S(N)(=O)=O)c3)ncc2F)c1 [VI-57, N2-(3-Aminosulfonyl-4-methylphenyl)-5-fluoro-N4-[3-(prop-2-ynyloxy)phenyl]-2,4-pyrimidinediamine] |  |  | 202 | 1180 | 
Cc1cc(CCC#N)ccc1Nc1nc(Nc2cccc(S(N)(=O)=O)c2)ncc1F [III-24, N2-(3-Aminosulfonylphenyl)-N4-(4-cyanoethylene-2-methylphenyl)-5-fluoro-2,4-pyrimidinediamine] |  |  |  |  | IC50 [1, 6]: 258 nM; IC50 (Primary human T-cells; [7]): 1620 nM
Cc1ccc(Nc2ncc(F)c(Nc3ccc(CCCCF)cc3)n2)cc1S(N)(=O)=O [VI-93, N2-(3-Aminosulfonyl-4-methylphenyl)-5-fluoro-N4-[4-(4-fluorobutyl)phenyl]-2,4-pyrimidinediamine] |  |  | 110 | 560 | 
Cc1ccc(Nc2ncc(F)c(Nc3ccc(OCC(=O)N(C)C)c(Cl)c3)n2)cc1S(N)(=O)=O [Compound I-133, N2-(3-Aminosulfonyl-4-methylphenyl)-N4-(3-chloro-4-dimethylaminocarbonylmethoxyphenyl)-5-fluoro-2,4-pyrimidinediamine] |  |  |  |  | IC50 [1, 8]: 237 nM; IC50 (Primary human T-cells; [9]): 1350 nM
Cc1ccc(Nc2ncc(F)c(Nc3ccc(OCC(=O)N(C)C)cc3)n2)cc1S(N)(=O)=O [Compound I-130, N2-(3-Aminosulfonyl-4-methylphenyl)-N4-(4-dimethylaminocarbonylmethoxyphenyl)-5-fluoro-2,4-pyrimidinediamine] |  |  |  |  | IC50 [1, 8]: 601 nM; IC50 (Primary human T-cells; [9]): 1730 nM
NS(=O)(=O)c1ccc(Nc2ncc(F)c(Nc3ccc(Cn4cncn4)cc3)n2)cc1 [III-99, N2-(4-Aminosulfonylphenyl)-5-fluoro-N4-{4-[1-(1,2,4-thazolyl)methyl]phenyl}-2,4-pyrimidinediamine] | 1030 | 2170 |  |  | 
CCC(=O)NS(=O)(=O)c1cc(Nc2ncc(F)c(Nc3ccc(OCC#N)c(F)c3)n2)ccc1C [Compound I-49, N4-(4-Cyanomethoxy-3-fluorophenyl)-5-fluoro-N2-(4-methyl-3-propionylaminosulfonylphenyl)-2,4-pyrimidinediamine Sodium Salt] |  |  |  |  | IC50 ([1]; Ramos B-cell line stimulated with IL-4, CD23 expression by FACS, sodium salt): 2320 nM; IC50 (Primary human T-cells; [9]): 5560 nM
CC(=O)N1CCN(C(=O)c2ccc(Nc3nc(Nc4ccc(C)c(S(N)(=O)=O)c4)ncc3F)cc2)CC1 [IX-24, N4-[4-(1-Acetyl-4-piperizinyl)carbonylphenyl]-N2-(3-Aminosulfonyl-4-methylphenyl)-5-fluoro-2,4-pyrimidinediamine] | 6330 | 38400 |  |  | 
Cc1nccn1Cc1ccc(Nc2nc(Nc3ccc(S(N)(=O)=O)cc3)ncc2F)cc1 [III-92, N2-(4-Aminosulfonylphenyl)-5-fluoro-N4-[4-(2-methyl-1-imidazolylmethyl)phenyl]-2,4-pyrimidinediamine] | 323 | 1900 |  |  | 
N4-(4-Acetylthiomethylcarbonylphenyl)-N2-(4-aminosulfonylphenyl)-5-fluoro-2,4-pyrimidinediamine [IX-41] | 133 | 6260 |  |  | 

Compound | IC50 [1, 2] [nM] | IC50 (Primary human T-cells; [3]) [nM] | IC50 [1, 4] [nM] | IC50 (Primary human T-cells; [5]) [nM] | further results
CCn1nccc1NC(=O)Cc1ccc(Nc2nc(Nc3ccc(C)c(S(N)(=O)=O)c3)ncc2F)cc1 [III-52, N2-(3-Aminosulfonyl-4-methylphenyl)-5-N4-[(1-ethylpyrazolyl-5-aminocarbonylmethylene)phenyl]-5-fluoro-2,4-pyrimidinediamine] |  |  |  |  | IC50 [1, 6]: 183 nM; IC50 (Primary human T-cells; [7]): 1200 nM
C#CCOC(=O)NCc1ccc(Nc2nc(Nc3ccc(C)c(S(N)(=O)=O)c3)ncc2F)cc1 [VI-73, N2-(3-Aminosulfonyl-4-methylphenyl)-5-fluoro-N4-{4-[(prop-2-ynyloxy)carbonylaminomethyl]phenyl}-2,4-pyrimidinediamine] |  |  | 251 | 2010 | 
NS(=O)(=O)c1cc(Nc2ncc(F)c(Nc3ccc(Oc4cccnc4)cc3)n2)cc(S(N)(=O)=O)c1 [II-15, N2-[3,5-bis(Aminosulfonyl)phenyl)-5-fluoro-N4-[4-(3-pyridyloxy)phenyl]-2,4-pyrimidinediamine] |  |  |  |  | IC50 [1, 8]: 982 nM; IC50 (Primary human T-cells; [9]): 1100 nM
N2-(3-Aminosulfonyl-4-methylphenyl)-N4-(4-benzylphenyl)-5-fluoro-2,4-pyrimidinediamine [III-63] |  |  |  |  | IC50 [1, 6]: 315 nM; IC50 (Primary human T-cells; [7]): 1880 nM
N2-(3-Aminosulfonyl-4-methoxy-5-methylphenyl)-5-fluoro-N4-(4-trifluoromethylphenyl)-2,4-pyrimidinediamine [VI-34] | 157 | 839 |  |  | 
N4-(4-Acetylthiomethylcarbonylphenyl)-N2-(3-aminosulfonylphenyl)-5-fluoro-2,4-pyrimidinediamine [IX-42] | 292 | 2170 |  |  | 
CC1(C)Oc2ccc(Nc3nc(Nc4cccc(S(N)(=O)=O)c4)ncc3N)cc2NC1=O [VII-39, 5-Amino-N2-(3-amionsulfonylphenyl)-N4-(2,2-dimethyl-3-oxo-4H-benz[1,4]oxazin-6-yl)-2,4-pyrimidinediamine] | 772 | 919 |  |  | 
Cc1ccc(Nc2ncc(F)c(Nc3cnc4ccccc4c3)n2)cc1S(N)(=O)=O [VII-65, N2-(3-Aminosulfonyl-4-methylphenyl)-5-fluoro-N4-(quinolin-3-yl)-2,4-pyrimidinediamine] |  |  | 385 | 3060 | 
Cc1cc(Nc2nc(Nc3ccc(C)c(S(N)(=O)=O)c3)ncc2F)ccc1NC(=O)CC#N [Compound I-81, N2-(3-Aminosulfonyl-4-methylphenyl)-5-fluoroN4-[3-methyl4-(N-cyanoacetyl)aminophneyl]-2,4-pyrimidinediamine] |  |  |  |  | IC50 [1, 6]: 360 nM; IC50 (Primary human T-cells; [7]): 957 nM
COc1ccc(Nc2nc(Nc3ccc(Cl)c(S(=O)(=O)NC(C)=O)c3)ncc2F)cc1Cl [VI-12, N2-[3-(N-Acetyl)aminosulfonyl-4-chlorophenyl]-N4-(3-chloro-4-methoxyphenyl)-5-fluoro-2,4-pyrimidinediamine] |  |  | 146 | 1310 | 
COc1ccc(Nc2nc(Nc3ccc(Cl)c(S(N)(=O)=O)c3)ncc2F)cc1Cl [VI-2, N2-(3-Aminosulfonyl-4-chlorophenyl)-N4-(3-chloro-4-methoxyphenyl)-5-fluoro-2,4-pyrimidinediamine] |  |  | 89.2 | 3570 | 
N2-(3-Aminosulfonyl-4-chlorophenyl)-N4-(4-benzylphenyl)-5-fluoro-2,4-pyrimidinediamine [III-64] |  |  |  |  | IC50 [1, 6]: 447 nM; IC50 (Primary human T-cells; [7]): 5960 nM
CNS(=O)(=O)c1cc(Nc2ncc(F)c(Nc3ccc(Cn4cncn4)cc3)n2)ccc1C [III-102, 5-Fluoro-N2-[3-(N-methylaminosulfony)-4-methylphenyl]-N4-{4-[1-(1,2,4-thazolyl)methyl]phenyl}-2,4-pyrimidinediamine] | 302 | 486 |  |  | 
CC(C)c1ccc(Nc2ncc(F)c(Nc3ccc4oc(C#N)cc4c3)n2)cc1S(N)(=O)=O [IX-22, N2-(3-Aminosulfonyl-4-iso-propylphenyl)-N4-(2-cyanobenzofuran-5-yl)-5-fluoro-2,4-pyrimidinediamine] |  |  | 295 | 1590 | 
Cc1ccc(Nc2ncc(F)c(Nc3ccc(C(=O)N4CCN(C)CC4)cc3)n2)cc1S(N)(=O)=O [IX-27, N2-(3-Aminosulfonyl-4-methylphenyl)-5-fluoro-N4-[4-(4-methylpiperazin-1-ylcarbonyl)phenyl]-2,4-pyrimidinediamine] |  |  | 1380 | 7630 | 
N#Cc1cc2cc(Nc3nc(Nc4ccc(Cl)c(S(N)(=O)=O)c4)ncc3F)ccc2o1 [IX-21] | 271 | 2740 |  |  | 
